Converted amounts (≈) assume the structure as drawn. Where two headings read alike, the source gives them in different places.
How the values were obtained:
Assay in all cases: In vitro antibacterial activity, agar dilution
Format in all cases: cell-based
Escherichia coli = tested on: Escherichia coli
Method: (§1) The in vitro antibacterial effects of antibiotics LL-E19085α, LL-E19085β, LL-E19085γ, LL-E19085.zeta. and LL-E19085.eta. were determined by standard agar dilution methods against clinical isolates obtained from medical centers representing various geographical areas in the United States. The inoculum of each culture was approximately 1 to 5×10^4 colony forming units applied with a Steers multiple inocula replicator to plates containing the antibiotic in Mueller-Hinton agar. The agar was supplemented with about 5% sheep blood where required for the growth of the organism.

[1] = tested on: Staphylococcus hemolyticus; conditions: read-out: Minimal Inhibitory Concentration
Method: as §1

Klebsiella pneumoniae = conditions: strain NEMC 87-271, Mueller-Hinton agar, read-out: Minimal Inhibitory Concentration
Method: as §1

Enterococcus Grp D = conditions: strain WRVA 88-33, Mueller-Hinton agar, read-out: Minimal Inhibitory Concentration
Method: as §1

Streptococcus pneumoniae = conditions: read-out: Minimal Inhibitory Concentration
Method: as §1

Enterococcus = conditions: strain CHBM 88-60, Mueller-Hinton agar, read-out: Minimal Inhibitory Concentration
Method: as §1

Streptococcus faecalis = conditions: Enterococcus faecalis, Mueller-Hinton agar, read-out: Minimal Inhibitory Concentration
Method: as §1

[2] = tested on: Streptococcus a-hemolyticus; conditions: strain AMCH 88-84, Mueller-Hinton agar, read-out: Minimal Inhibitory Concentration
Method: as §1

Staphylococcus aureus = conditions: read-out: Minimal Inhibitory Concentration
Method: as §1

[3] = tested on: Streptococcus b-hemolyticus; conditions: strain AMCH 88-86, Mueller-Hinton agar, read-out: Minimal Inhibitory Concentration
Method: as §1

Bacteroides cereus = conditions: read-out: Minimal Inhibitory Concentration
Method: as §1

[4] = ATCC25922, strain ATCC 25922, Mueller-Hinton agar, read-out: Minimal Inhibitory Concentration
[5] = ATCC35218, strain ATCC 35218, Mueller-Hinton agar, read-out: Minimal Inhibitory Concentration
[6] = read-out: Minimal Inhibitory Concentration, strain D21, Mueller-Hinton agar
[7] = strain D22, Mueller-Hinton agar, read-out: Minimal Inhibitory Concentration
[8] = strain AVAH 88-1, Mueller-Hinton agar
[9] = strain AVAH 88-3, Mueller-Hinton agar
[10] = strain CHBB 88-75, Mueller-Hinton agar
[11] = strain CHBM 88-70, Mueller-Hinton agar
[12] = strain TEX 85-2, Mueller-Hinton agar
[13] = ATCC25923, strain ATCC 25923, Mueller-Hinton agar
[14] = ATCC29213, strain ATCC 29213, Mueller-Hinton agar
[15] = strain CMC 83-131, Mueller-Hinton agar
[16] = strain IVES 542, Mueller-Hinton agar
[17] = strain K82-26, Mueller-Hinton agar
[18] = strain NEMC 87-69, Mueller-Hinton agar
[19] = strain ROSE (MP), Mueller-Hinton agar
[20] = strain VGH 84-47, Mueller-Hinton agar

| Structure (SMILES) | MIC (Escherichia coli; [4]) | MIC (Escherichia coli; [5]) | MIC (Escherichia coli; [6]) | MIC (Escherichia coli; [7]) | MIC [1, 8] | MIC [1, 9] | MIC (Klebsiella pneumoniae) | MIC (Enterococcus Grp D) | MIC (Streptococcus pneumoniae; [10]) | MIC (Streptococcus pneumoniae; [11]) | MIC (Streptococcus pneumoniae; [12]) | MIC (Enterococcus) | MIC (Streptococcus faecalis; strain ARUM 87-41) | MIC (Streptococcus faecalis; strain CMC 83-120) | MIC (Streptococcus faecalis; strain VCH 84-69) | MIC (Streptococcus faecalis; strain VCI 85-30) | MIC [2] | MIC (Staphylococcus aureus; [13]) | MIC (Staphylococcus aureus; [14]) | MIC (Staphylococcus aureus; [15]) | other results |
| --- | --- | --- | --- | --- | --- | --- | --- | --- | --- | --- | --- | --- | --- | --- | --- | --- | --- | --- | --- | --- | --- |
| COc1cc2oc3c(c(=O)c2cc1OC)C(=O)c1c(ccc2cc4c(c(O)c12)C(=O)N1C(C)(C4)OC(=O)C1(C)CO)C3=O (stereo not drawn) [LL-E19085.eta.] | > 32 µg/mL | > 32 µg/mL | ≥ 32 µg/mL | 2 µg/mL (≈ 3.42 µM) | ≤ 0.015 µg/mL | ≤ 0.015 µg/mL | ≥ 32 µg/mL | ≤ 0.015 µg/mL | ≤ 0.015 µg/mL | ≤ 0.015 µg/mL | ≤ 0.015 µg/mL | ≤ 0.015 µg/mL | ≤ 0.015 µg/mL | ≤ 0.015 µg/mL | ≤ 0.015 µg/mL | ≤ 0.015 µg/mL | ≤ 0.015 µg/mL | ≤ 0.015 µg/mL | ≤ 0.015 µg/mL | 0.12 µg/mL (≈ 0.205 µM) | MIC (Staphylococcus aureus; [16]): ≤ 0.015 µg/mL; MIC (Staphylococcus aureus; [17]): ≤ 0.015 µg/mL; MIC (Staphylococcus aureus; [18]): ≤ 0.015 µg/mL; MIC (Staphylococcus aureus; [19]): ≤ 0.015 µg/mL; MIC (Staphylococcus aureus; [20]): ≤ 0.015 µg/mL; MIC [3]: ≤ 0.015 µg/mL; MIC (Bacteroides cereus): ≤ 0.015 µg/mL |
| COc1cc2oc3c(c(=O)c2cc1OC)C(=O)c1c(ccc2cc4c(c(O)c12)C(=O)N1C(C)(C4)OC(=O)C1(C)COC(=O)C(C)C)C3=O (stereo not drawn) [LL-E19085β] | > 64 µg/mL | > 64 µg/mL | ≥ 64 µg/mL | 8 µg/mL (≈ 12.2 µM) | 2 µg/mL (≈ 3.05 µM) | 4 µg/mL (≈ 6.1 µM) | ≥ 64 µg/mL | 2 µg/mL (≈ 3.05 µM) | 0.12 µg/mL (≈ 0.183 µM) | 0.25 µg/mL (≈ 0.381 µM) | 0.12 µg/mL (≈ 0.183 µM) | 2 µg/mL (≈ 3.05 µM) | 2 µg/mL (≈ 3.05 µM) | 2 µg/mL (≈ 3.05 µM) | 2 µg/mL (≈ 3.05 µM) | 2 µg/mL (≈ 3.05 µM) | 0.5 µg/mL (≈ 0.763 µM) | 0.5 µg/mL (≈ 0.763 µM) | 2 µg/mL (≈ 3.05 µM) | 4 µg/mL (≈ 6.1 µM) | MIC (Staphylococcus aureus; [16]): 4 µg/mL (≈ 6.1 µM); MIC (Staphylococcus aureus; [17]): 2 µg/mL (≈ 3.05 µM); MIC (Staphylococcus aureus; [18]): 4 µg/mL (≈ 6.1 µM); MIC (Staphylococcus aureus; [19]): 2 µg/mL (≈ 3.05 µM); MIC (Staphylococcus aureus; [20]): 4 µg/mL (≈ 6.1 µM); MIC [3]: 2 µg/mL (≈ 3.05 µM); MIC (Bacteroides cereus): 2 µg/mL (≈ 3.05 µM) |
| COc1cc2oc3c(c(=O)c2cc1OC)C(=O)c1c(ccc2cc4c(c(O)c12)C(=O)N1C(C)(C4)OC(=O)C1(C)COC(C)=O)C3=O (stereo not drawn) [LL-E19085γ] | > 16 µg/mL | > 16 µg/mL | ≥ 16 µg/mL | 16 µg/mL (≈ 25.5 µM) | 8 µg/mL (≈ 12.7 µM) | 0.5 µg/mL (≈ 0.797 µM) | ≥ 16 µg/mL | 0.5 µg/mL (≈ 0.797 µM) | ≤ 0.008 µg/mL | ≤ 0.008 µg/mL | ≤ 0.008 µg/mL | 0.5 µg/mL (≈ 0.797 µM) | 0.5 µg/mL (≈ 0.797 µM) | 1 µg/mL (≈ 1.59 µM) | 0.03 µg/mL (≈ 0.0478 µM) | 0.06 µg/mL (≈ 0.0956 µM) | ≤ 0.008 µg/mL | ≥ 0.008 µg/mL | 1 µg/mL (≈ 1.59 µM) | 16 µg/mL (≈ 25.5 µM) | MIC (Staphylococcus aureus; [16]): 8 µg/mL (≈ 12.7 µM); MIC (Staphylococcus aureus; [17]): ≤ 0.008 µg/mL; MIC (Staphylococcus aureus; [18]): 4 µg/mL (≈ 6.37 µM); MIC (Staphylococcus aureus; [19]): 1 µg/mL (≈ 1.59 µM); MIC (Staphylococcus aureus; [20]): 1 µg/mL (≈ 1.59 µM); MIC [3]: ≤ 0.008 µg/mL; MIC (Bacteroides cereus): 0.5 µg/mL (≈ 0.797 µM) |
